Patent US20190382432A1 (Synbias Pharma AG, priority 2013, published 2019)
Counter-ions that a name gives are not always drawn. Marks after values point to notes of the source that are not given here.

How the values were obtained:
Format in all cases: physicochemical
[1] = Thermostability on storage at 25, 40 and 100 °C per ICH Q1A (R2), HPLC
Experimental: HPLC and GC analyses were performed according to standard protocols.
The testing was performed as described in the ICH guidelines (cf. inter alia ICH Guideline Q1A (R2)).

[2] = Thermostability under stress conditions (storage at 100 °C for one month), HPLC
Experimental: Sample S was prepared according to the present invention, as described in Example 3 above. Sample M1 was prepared according to Example 1 of WO 2012/163508 A1, as described in Example 7 above. Finally, Sample M2 was prepared according to Example 2 of WO 2012/163508 A1, as described in Example 7 above.
The samples were exposed to a temperature of 100° C. for the time period (in weeks) indicated. The testing was performed as described in the ICH Guideline Q1A (R2) (cf. above). The amount of the degradation product (i.e. doxorubicinone) produced as well as those of various impurities (i.e., doxorubicin and four different impurities of yet unknown identity; all given in % (w/w); “n.d.”=not determined) was determined by HPCL analysis (“LT”=less than).

[3] = Particle size distribution by laser diffraction analysis (Mastersizer 2000); conditions: wet laser diffraction in acetone; listed as Sample 2, hydrochloride
Experimental: Laser diffraction analysis was performed in form of wet laser diffraction in acetone: 1750 rpm, 3×20 s cycle time, 60 s background time, without sonication, and 5 min stirring time using a Mastersizer 2000 Particle Size Analyzer (Malvern Instruments Ltd., Malvern, UK) according to the manufacturer's instructions.

[4] = 25 °C, 12 months, hydrochloride
[5] = 25 °C, 24 months, hydrochloride

**Q.** For `COc1cccc2c1C(=O)c1c(O)c3c(c(O)c1C2=O)C[C@@](O)(C(=O)CO)C[C@@H]3O[C@H]1C[C@H](N)[C@H](O)[C@H](C)O1` [epirubicin hydrochloride trihydrate, epirubicin hydrochloride], which Doxorubicinone ([1]; 25 °C, 0 months) is on record?
**A.** The Doxorubicinone was “LT 0.05 % (w/w)”.

**Q.** And the “Assay (intact epirubicin hydrochloride)” value ([1]; 25 °C, 0 months, hydrochloride)?
**A.** Its value is 98.8 % (w/w).

**Q.** And the “Assay (intact epirubicin hydrochloride)” value ([1]; 25 °C, 1 month, hydrochloride)?
**A.** Its value is 98.7 % (w/w).

**Q.** What about the Doxorubicinone ([1]; 25 °C, 1 month, hydrochloride) of the same molecule?
**A.** The Doxorubicinone was 0.06 % (w/w).

**Q.** And the “Assay (intact epirubicin hydrochloride)” value ([1]; 25 °C, 3 months, hydrochloride)?
**A.** Its value is 98.7 % (w/w).

**Q.** What about the Doxorubicinone ([1]; 25 °C, 3 months, hydrochloride) of the same molecule?
**A.** The Doxorubicinone was 0.09 % (w/w).

**Q.** What about the “Assay (intact epirubicin hydrochloride)” value ([1]; 25 °C, 6 months, hydrochloride) of the same molecule?
**A.** Its value is 98.4 % (w/w).

**Q.** What about the Doxorubicinone ([1]; 25 °C, 6 months, hydrochloride) of the same molecule?
**A.** The Doxorubicinone was 0.22 % (w/w).

**Q.** And the “Assay (intact epirubicin hydrochloride)” value [1, 4]?
**A.** The value was 98.5 % (w/w).

**Q.** What about the Doxorubicinone [1, 4] of the same molecule?
**A.** The Doxorubicinone was 0.42 % (w/w).

**Q.** What about the “Assay (intact epirubicin hydrochloride)” value [1, 5] of the same molecule?
**A.** Its value is 98.0 % (w/w).

**Q.** What about the Doxorubicinone [1, 5] of the same molecule?
**A.** The Doxorubicinone was 0.62 % (w/w).

**Q.** What about the Doxorubicinone ([1]; 40 °C, 0 months) of the same molecule?
**A.** Its Doxorubicinone is “LT 0.05 % (w/w)”.

**Q.** And the “Assay (intact epirubicin hydrochloride)” value ([1]; 40 °C, 0 months, hydrochloride)?
**A.** The value was 98.8 % (w/w).

**Q.** What about the “Assay (intact epirubicin hydrochloride)” value ([1]; 40 °C, 1 month, hydrochloride) of the same molecule?
**A.** Its value is 98.4 % (w/w).

**Q.** What about the Doxorubicinone ([1]; 40 °C, 1 month, hydrochloride) of the same molecule?
**A.** Its Doxorubicinone is 0.22 % (w/w).

**Q.** And the “Assay (intact epirubicin hydrochloride)” value ([1]; 40 °C, 3 months, hydrochloride)?
**A.** The value was 98.2 % (w/w).

**Q.** What about the Doxorubicinone ([1]; 40 °C, 3 months, hydrochloride) of the same molecule?
**A.** Its Doxorubicinone is 0.45 % (w/w).

**Q.** What about the “Assay (intact epirubicin hydrochloride)” value ([1]; 40 °C, 6 months, hydrochloride) of the same molecule?
**A.** The value was 98.0 % (w/w).

**Q.** What about the Doxorubicinone ([1]; 40 °C, 6 months, hydrochloride) of the same molecule?
**A.** The Doxorubicinone was 0.78* % (w/w).

**Q.** What about the Doxorubicinone ([1]; 100 °C, 0 months) of the same molecule?
**A.** Its Doxorubicinone is “LT 0.05 % (w/w)”.

**Q.** What about the “Assay (intact epirubicin hydrochloride)” value ([1]; 100 °C, 0 months, hydrochloride) of the same molecule?
**A.** Its value is 98.8 % (w/w).

**Q.** And the “Assay (intact epirubicin hydrochloride)” value ([1]; 100 °C, 1 month, hydrochloride)?
**A.** Its value is 89.5 % (w/w).

**Q.** And the Doxorubicinone ([1]; 100 °C, 1 month, hydrochloride)?
**A.** Its Doxorubicinone is 4.7** % (w/w).

**Q.** And the “Degradation on storage, in words” value ([1]; within six months storage at 25 °C)?
**A.** The value was “significant degradation”.

**Q.** Which “Doxorubicin (NMT 1%)” value ([2]; 0 weeks) does the source give for `COc1cccc2c1C(=O)c1c(O)c3c(c(O)c1C2=O)C[C@@](O)(C(=O)CO)C[C@@H]3O[C@H]1C[C@H](N)[C@H](O)[C@H](C)O1` [Example M2, epirubicin hydrochloride] here?
**A.** Its value is 0.29 % (w/w).

**Q.** And the “Doxorubicinone (Aglycone) (NMT 1%)” value ([2]; 0 weeks)?
**A.** The value was < 0.05 % (w/w).

**Q.** What about the “Total Impurities (NMT 2%)” value ([2]; 0 weeks) of the same molecule?
**A.** Its value is 0.30 % (w/w).

**Q.** And the “Doxorubicin (NMT 1%)” value ([2]; 1 week, hydrochloride)?
**A.** Its value is 0.27 % (w/w).

**Q.** And the “Doxorubicinone (Aglycone) (NMT 1%)” value ([2]; 1 week, hydrochloride)?
**A.** The value was 0.54 % (w/w).

**Q.** And the “Total Impurities (NMT 2%)” value ([2]; 1 week, hydrochloride)?
**A.** The value was 1.30 % (w/w).

**Q.** What about the “Unknown impurity RRT 1.2 (NMT 0.15%)” value ([2]; 1 week, hydrochloride) of the same molecule?
**A.** Its value is 0.12 % (w/w).

**Q.** What about the “Unknown impurity RRT 1.6 (NMT 0.15%)” value ([2]; 1 week, hydrochloride) of the same molecule?
**A.** Its value is 0.12 % (w/w).

**Q.** What about the “Unknown impurity RRT 1.7 (NMT 0.15%)” value ([2]; 1 week, hydrochloride) of the same molecule?
**A.** Its value is 0.14 % (w/w).

**Q.** And the “Doxorubicin (NMT 1%)” value ([2]; 2 weeks)?
**A.** The value was 0.32 % (w/w).

**Q.** What about the “Doxorubicinone (Aglycone) (NMT 1%)” value ([2]; 2 weeks, hydrochloride) of the same molecule?
**A.** Its value is 0.59 % (w/w).

**Q.** And the “Total Impurities (NMT 2%)” value ([2]; 2 weeks, hydrochloride)?
**A.** Its value is 1.70 % (w/w).

**Q.** What about the “Unknown impurity RRT 1.1 (NMT 0.15%)” value ([2]; 2 weeks, hydrochloride) of the same molecule?
**A.** Its value is 0.14 % (w/w).

**Q.** What about the “Unknown impurity RRT 1.2 (NMT 0.15%)” value ([2]; 2 weeks, hydrochloride) of the same molecule?
**A.** Its value is 0.12 % (w/w).

**Q.** And the “Unknown impurity RRT 1.6 (NMT 0.15%)” value ([2]; 2 weeks, hydrochloride)?
**A.** The value was 0.21 % (w/w).

**Q.** What about the “Unknown impurity RRT 1.7 (NMT 0.15%)” value ([2]; 2 weeks, hydrochloride) of the same molecule?
**A.** The value was 0.18 % (w/w).

**Q.** And the “Doxorubicin (NMT 1%)” value ([2]; 3 weeks, hydrochloride)?
**A.** Its value is 0.32 % (w/w).

**Q.** And the “Doxorubicinone (Aglycone) (NMT 1%)” value ([2]; 3 weeks, hydrochloride)?
**A.** The value was 0.61 % (w/w).

**Q.** And the “Total Impurities (NMT 2%)” value ([2]; 3 weeks, hydrochloride)?
**A.** Its value is 1.80 % (w/w).

**Q.** And the “Unknown impurity RRT 1.1 (NMT 0.15%)” value ([2]; 3 weeks, hydrochloride)?
**A.** The value was 0.13 % (w/w).

**Q.** What about the “Unknown impurity RRT 1.2 (NMT 0.15%)” value ([2]; 3 weeks, hydrochloride) of the same molecule?
**A.** The value was 0.13 % (w/w).

**Q.** And the “Unknown impurity RRT 1.6 (NMT 0.15%)” value ([2]; 3 weeks, hydrochloride)?
**A.** The value was 0.27 % (w/w).

**Q.** What about the “Unknown impurity RRT 1.7 (NMT 0.15%)” value ([2]; 3 weeks, hydrochloride) of the same molecule?
**A.** The value was 0.22 % (w/w).

**Q.** What about the “Doxorubicin (NMT 1%)” value ([2]; 4 weeks) of the same molecule?
**A.** The value was 0.33 % (w/w).

**Q.** And the “Doxorubicinone (Aglycone) (NMT 1%)” value ([2]; 4 weeks, hydrochloride)?
**A.** The value was 0.60 % (w/w).

**Q.** What about the “Total Impurities (NMT 2%)” value ([2]; 4 weeks, hydrochloride) of the same molecule?
**A.** The value was 2.1* % (w/w).

**Q.** What about the “Total amount of unknown impurities” value ([2]; 4 weeks, hydrochloride) of the same molecule?
**A.** The value was 1.1 % (w/w).

**Q.** What about the “Unknown impurity RRT 1.1 (NMT 0.15%)” value ([2]; 4 weeks, hydrochloride) of the same molecule?
**A.** The value was 0.21 % (w/w).

**Q.** And the “Unknown impurity RRT 1.2 (NMT 0.15%)” value ([2]; 4 weeks, hydrochloride)?
**A.** Its value is 0.16 % (w/w).

**Q.** What about the “Unknown impurity RRT 1.6 (NMT 0.15%)” value ([2]; 4 weeks, hydrochloride) of the same molecule?
**A.** The value was 0.39 % (w/w).

**Q.** What about the “Unknown impurity RRT 1.7 (NMT 0.15%)” value ([2]; 4 weeks, hydrochloride) of the same molecule?
**A.** Its value is 0.26 % (w/w).

**Q.** And the “D(v/0.5), mean diameter based on the volume of the particles” value [3]?
**A.** Its value is 9.04 μm.
